# The source made the active and inactive calls.
# Tests used:
# [1] = cells; assay type: functional, cell-based
# [2] = cells; assay type: functional, cell-based; remark: listed apart in the source
# [3] = target: T1, Beta-2 adrenergic receptor (Homo sapiens, UniProt P07550); assay: Dose response for HTS for Beta-2AR agonists via FAP method from Powderset1.; assay type: functional
# [4] = target: T1, Beta-2 adrenergic receptor; assay: beta2AR agonists driving receptor internalization, dose response, cell-based, FAP fluorogen, flow cytometry, cherry pick 1 (AID 588763); assay type: functional
# [5] = Luminescence Cell-Based Dose Confirmation HTS to Identify Activators of 5'UTR Stem-Loop Driven Alpha-Synuclein mRNA Translation in H4 Neuroglioblastoma Cells. [Related pubchem assays: 1829 (Project Summary), 1814 (Primary HTS)]; assay type: functional
# [6] = Luminescence Cell-Based Dose Response HTS to Identify Activators of Luciferase Translation or Activity in H4 […] Cells. [Related pubchem assays: 1829 (Project Summary), 1814 (Primary HTS)]; assay type: functional
# [7] = system: H4; assay: Luminescence Cell-Based Dose Response HTS to Identify Activators of 5'UTR Stem-Loop Driven Prion Protein mRNA Translation in H4 Neuroglioblastoma Cells. [Related pubchem assays: 1829 (Project Summary), 1814 (Primary HTS)]; assay type: functional; details: Homo sapiens
# [8] = Luminescence Cell-Based Dose Retest to Confirm Inhibitors of Cancer Stem Cells. [Related pubchem assays (depositor defined):AID2717, AID2721]; assay type: functional; details: Homo sapiens
# [9] = system: HEK293; assay: cytotoxicity in HEK293T NF-kB-Luc cells, SAR follow-up, cytotoxicity control for NF-kB activator project, cell-based, resazurin fluorescence (AID 493251); assay type: functional; details: Homo sapiens
# [10] = system: Jurkat; assay: SAR Analysis of small molecule inhibitors of T-cell specific antigen receptor-induced NF-kB activation in a Jurkat cell line using a luminescence assay - Set 2. [Related pubchem assays (depositor defined):AID435003, AID435012, AID465]; assay type: functional, cell-based; details: Homo sapiens
# [11] = system: Vero; assay: cells; assay type: functional, cell-based; details: Chlorocebus sabaeus
# [12] = system: HEK293; assay: SAR Analysis of small molecule inhibitors of T-cell specific antigen receptor-induced NF-kB activation in a HEK-293T cell line using a luminescence assay - Set 2. [Related pubchem assays (depositor defined):AID435003, AID435012, AID489026]; assay type: functional, cell-based; details: Homo sapiens
# [13] = system: Vero; assay: cells; assay type: functional; details: Chlorocebus sabaeus
# [14] = target: SWI/SNF-related matrix-associated actin-dependent regulator of chromatin subfamily A member 2 (Homo sapiens, UniProt P51531); assay: Luminescence-based cell-based high throughput dose response assay to identify activators of the function of SWI/SNF related, matrix associated, actin dependent regulator of chromatin, subfamily a, member 2 (SMARCA2, BRM).; assay type: functional
# Sequence of SWI/SNF-related matrix-associated actin-dependent regulator of chromatin subfamily A member 2 (P51531 whole entry): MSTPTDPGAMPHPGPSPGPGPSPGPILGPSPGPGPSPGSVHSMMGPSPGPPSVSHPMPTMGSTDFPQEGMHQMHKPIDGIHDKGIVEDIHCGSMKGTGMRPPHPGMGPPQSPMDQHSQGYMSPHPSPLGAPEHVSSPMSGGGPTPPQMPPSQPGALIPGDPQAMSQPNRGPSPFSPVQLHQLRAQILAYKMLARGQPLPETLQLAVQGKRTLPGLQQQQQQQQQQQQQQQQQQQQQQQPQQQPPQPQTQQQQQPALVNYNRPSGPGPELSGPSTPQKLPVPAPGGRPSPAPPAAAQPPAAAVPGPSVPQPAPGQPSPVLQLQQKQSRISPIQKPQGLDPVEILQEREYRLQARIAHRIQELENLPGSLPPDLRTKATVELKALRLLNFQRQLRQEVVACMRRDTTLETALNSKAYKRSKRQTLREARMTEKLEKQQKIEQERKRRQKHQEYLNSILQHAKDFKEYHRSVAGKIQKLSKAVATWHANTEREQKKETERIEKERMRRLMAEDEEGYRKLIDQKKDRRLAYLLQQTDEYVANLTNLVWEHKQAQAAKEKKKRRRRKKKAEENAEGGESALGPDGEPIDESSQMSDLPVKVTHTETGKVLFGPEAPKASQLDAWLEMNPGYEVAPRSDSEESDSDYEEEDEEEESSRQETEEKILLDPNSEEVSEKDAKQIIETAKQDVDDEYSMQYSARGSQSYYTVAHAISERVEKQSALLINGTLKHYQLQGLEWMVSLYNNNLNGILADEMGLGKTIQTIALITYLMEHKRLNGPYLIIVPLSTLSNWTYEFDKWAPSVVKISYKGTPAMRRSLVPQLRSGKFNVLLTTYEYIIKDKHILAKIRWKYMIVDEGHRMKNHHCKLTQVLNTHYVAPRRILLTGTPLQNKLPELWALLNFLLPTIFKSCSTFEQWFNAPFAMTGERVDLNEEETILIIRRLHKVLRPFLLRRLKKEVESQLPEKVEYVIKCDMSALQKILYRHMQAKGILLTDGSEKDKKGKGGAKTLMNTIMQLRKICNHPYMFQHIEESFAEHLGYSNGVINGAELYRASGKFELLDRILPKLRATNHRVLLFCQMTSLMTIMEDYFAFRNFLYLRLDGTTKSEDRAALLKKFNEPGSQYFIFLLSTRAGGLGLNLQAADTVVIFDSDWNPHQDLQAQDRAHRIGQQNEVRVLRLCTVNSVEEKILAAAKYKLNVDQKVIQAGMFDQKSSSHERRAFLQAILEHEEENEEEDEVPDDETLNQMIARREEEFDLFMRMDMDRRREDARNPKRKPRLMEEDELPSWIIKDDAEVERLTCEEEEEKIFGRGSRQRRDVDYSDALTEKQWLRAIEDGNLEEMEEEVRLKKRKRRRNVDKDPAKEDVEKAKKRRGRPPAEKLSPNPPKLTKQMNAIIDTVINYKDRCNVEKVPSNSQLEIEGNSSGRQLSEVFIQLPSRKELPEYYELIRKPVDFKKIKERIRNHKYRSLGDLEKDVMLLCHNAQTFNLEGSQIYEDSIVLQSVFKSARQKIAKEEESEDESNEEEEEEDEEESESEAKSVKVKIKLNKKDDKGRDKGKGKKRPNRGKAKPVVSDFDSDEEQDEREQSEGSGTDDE
# [15] = Counterscreen for activators of the function of SWI/SNF related, matrix associated, actin dependent regulator of chromatin, subfamily a, member 2 (SMARCA2, BRM): Luminescence-based cell-based high throughput dose response assay to identify non-selective compounds using the VP16 reporter assay.; assay type: functional
# [16] = target: Nonstructural protein 1 (Influenza A virus, UniProt Q194T2); assay type: functional, Influenza A virus (A/California/07/2009(H1N1))
# Sequence of Nonstructural protein 1 (Q194T2 whole entry): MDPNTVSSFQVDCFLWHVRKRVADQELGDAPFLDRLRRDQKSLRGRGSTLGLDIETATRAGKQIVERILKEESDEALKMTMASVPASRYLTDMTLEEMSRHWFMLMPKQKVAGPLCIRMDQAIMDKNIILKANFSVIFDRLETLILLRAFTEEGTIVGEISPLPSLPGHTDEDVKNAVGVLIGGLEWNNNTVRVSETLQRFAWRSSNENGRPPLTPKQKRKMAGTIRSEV
# [17] = target: Matrix metalloproteinase-14 (Homo sapiens, UniProt P50281); assay: Dose Response confirmation of uHTS hits for a small molecule inhibitors of MT1-MMP activation in a fluorescence assay set 2.; assay type: functional
# [18] = target: fMet-Leu-Phe receptor (Homo sapiens, UniProt P21462); assay: FPR ligands, dose response (AID 519); assay type: functional
# Sequence of fMet-Leu-Phe receptor (P21462 whole entry): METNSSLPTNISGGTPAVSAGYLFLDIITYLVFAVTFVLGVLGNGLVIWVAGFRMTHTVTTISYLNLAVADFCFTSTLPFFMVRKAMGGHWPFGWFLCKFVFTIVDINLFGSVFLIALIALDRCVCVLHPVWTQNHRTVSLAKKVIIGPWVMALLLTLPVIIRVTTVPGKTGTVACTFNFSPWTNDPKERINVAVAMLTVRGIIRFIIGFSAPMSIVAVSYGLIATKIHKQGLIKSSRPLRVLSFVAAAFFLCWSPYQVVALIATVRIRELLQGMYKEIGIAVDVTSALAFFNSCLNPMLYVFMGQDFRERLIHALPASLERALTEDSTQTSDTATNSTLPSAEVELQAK
# [19] = target: T2, Corticotropin-releasing factor receptor 2/Corticotropin-releasing factor-binding protein (Homo sapiens, UniProt P24387+Q13324); assay: Dose Response confirmation of uHTS hits for small molecule antagonists of the CRF-binding protein and CRF-R2 receptor complex.; assay type: functional; details: read-out: IC50_Mean
# T2 sequence (Q13324 whole entry): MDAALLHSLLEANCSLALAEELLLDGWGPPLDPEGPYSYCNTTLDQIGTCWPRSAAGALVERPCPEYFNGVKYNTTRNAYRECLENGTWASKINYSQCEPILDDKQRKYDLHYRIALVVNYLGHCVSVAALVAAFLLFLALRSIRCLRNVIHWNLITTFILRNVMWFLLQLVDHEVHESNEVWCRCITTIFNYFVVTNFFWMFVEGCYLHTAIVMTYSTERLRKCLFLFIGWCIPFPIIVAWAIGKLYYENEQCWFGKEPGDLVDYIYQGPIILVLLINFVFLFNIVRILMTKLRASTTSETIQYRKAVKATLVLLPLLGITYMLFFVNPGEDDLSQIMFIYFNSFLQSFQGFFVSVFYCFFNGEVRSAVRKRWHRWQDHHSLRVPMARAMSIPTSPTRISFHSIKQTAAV
# T2 sequence (P24387 whole entry): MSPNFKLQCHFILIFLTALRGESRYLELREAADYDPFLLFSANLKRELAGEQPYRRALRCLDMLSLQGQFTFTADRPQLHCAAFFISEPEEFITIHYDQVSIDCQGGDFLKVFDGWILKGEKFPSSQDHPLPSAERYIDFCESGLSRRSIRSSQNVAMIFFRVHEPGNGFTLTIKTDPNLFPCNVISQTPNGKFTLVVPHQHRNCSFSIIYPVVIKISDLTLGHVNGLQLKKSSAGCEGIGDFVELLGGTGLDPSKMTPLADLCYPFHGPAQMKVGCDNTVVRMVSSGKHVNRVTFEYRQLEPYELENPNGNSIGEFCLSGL
# [20] = target: T2, Corticotropin-releasing factor receptor 2/Corticotropin-releasing factor-binding protein; assay: activators of CRF receptor 2 with binding protein – uHTS hits, confirmation (AID 602473); assay type: functional; details: read-out: EC50_Mean
# [21] = CRF-BP/CRF-R2 complex antagonists, dose response, cell-based, uHTS hits, 384-well (AID 651639); assay type: functional, Homo sapiens; details: read-out: IC50_Mean
# [22] = target: Photoreceptor-specific nuclear receptor (Homo sapiens, UniProt Q9Y5X4); assay type: functional, cell-based;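 further: CHO-S cells with Gal4-NCOR and VP16-NR2E3 two-hybrid luciferase reporter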
# Sequence of Photoreceptor-specific nuclear receptor (Q9Y5X4 whole entry, the tested form may be a part): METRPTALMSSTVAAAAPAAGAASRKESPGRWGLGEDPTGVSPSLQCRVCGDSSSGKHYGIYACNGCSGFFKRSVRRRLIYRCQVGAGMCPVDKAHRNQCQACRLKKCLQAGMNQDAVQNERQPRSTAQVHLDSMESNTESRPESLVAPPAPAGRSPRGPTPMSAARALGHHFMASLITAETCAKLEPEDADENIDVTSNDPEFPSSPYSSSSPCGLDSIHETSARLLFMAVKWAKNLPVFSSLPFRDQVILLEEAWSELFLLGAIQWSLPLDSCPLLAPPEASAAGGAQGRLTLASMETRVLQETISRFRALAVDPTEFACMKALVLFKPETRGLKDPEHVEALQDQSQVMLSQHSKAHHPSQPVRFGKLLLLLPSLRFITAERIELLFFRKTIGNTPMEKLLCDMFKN
# [23] = target: Caspase-6 (Homo sapiens, UniProt P55212); assay: human caspase-6 inhibitors, dose response, biochemical, VEID-R110 fluorescence, cherry-pick (AID 720632)
# Sequence of Caspase-6 (P55212 24-179 limits assumed): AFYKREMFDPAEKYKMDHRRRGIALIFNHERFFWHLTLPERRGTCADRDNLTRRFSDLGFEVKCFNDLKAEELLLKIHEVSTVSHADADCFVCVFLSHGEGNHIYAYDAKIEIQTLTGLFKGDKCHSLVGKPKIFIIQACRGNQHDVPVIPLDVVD
# Sequence of Caspase-6 (P55212 194-293 limits assumed): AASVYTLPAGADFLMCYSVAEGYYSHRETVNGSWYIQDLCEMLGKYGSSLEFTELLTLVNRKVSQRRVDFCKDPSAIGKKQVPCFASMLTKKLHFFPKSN
# [24] = system: HeLa; assay: HeLa cell cytotoxicity, dose response, cytotoxicity control, ATP luminescence, cherry-pick samples (AID 687004); assay type: functional, cell-based; details: Homo sapiens
# [25] = lymphoblastoid cell cytotoxicity, dose response, cytotoxicity control, plate reader, dry powder, set 2 (AID 624367); assay type: functional
# [26] = target: Paired box protein Pax-8 (Homo sapiens, UniProt Q06710); assay: inhibitors of PAX8-driven TPO luciferase reporter, dose response, RMG-I cells, cherry-pick (AID 687027); assay type: functional, cell-based;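 further: luciferase reporter driven by Pax8 target thyroperoxidase promoter measured by SteadyGlo luminescence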
# Sequence of Paired box protein Pax-8 (Q06710 whole entry): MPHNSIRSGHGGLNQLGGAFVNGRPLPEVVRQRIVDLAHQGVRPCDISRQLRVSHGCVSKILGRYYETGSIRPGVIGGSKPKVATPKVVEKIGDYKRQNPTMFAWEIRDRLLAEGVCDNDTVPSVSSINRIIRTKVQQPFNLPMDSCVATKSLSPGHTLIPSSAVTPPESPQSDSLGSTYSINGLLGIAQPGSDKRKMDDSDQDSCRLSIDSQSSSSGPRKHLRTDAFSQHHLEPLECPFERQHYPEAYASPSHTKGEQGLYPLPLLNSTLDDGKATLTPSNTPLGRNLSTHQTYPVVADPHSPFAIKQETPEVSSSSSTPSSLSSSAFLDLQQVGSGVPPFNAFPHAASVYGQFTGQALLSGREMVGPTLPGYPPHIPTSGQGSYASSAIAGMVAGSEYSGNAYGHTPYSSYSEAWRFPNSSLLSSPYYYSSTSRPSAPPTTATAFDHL
# [27] = IOSE-T80 ovarian epithelial cell cytotoxicity, dose response, cytotoxicity control for PAX8 inhibitor project, plate reader, dry powder samples (AID 743045); assay type: functional, cell-based
# [28] = A2780 ovarian cancer cell cytotoxicity, dose response, cytotoxicity control, plate reader, dry powder samples (AID 743046); assay type: functional, cell-based
# [29] = NIH:OVCAR-3 ovarian cancer cell cytotoxicity, dose response, PAX8 inhibitor project, plate reader, dry powder samples (AID 743044); assay type: functional, cell-based
# [30] = IGROV1 ovarian cancer cell cytotoxicity, dose response, PAX8 inhibitor project, plate reader, dry powder samples (AID 743043); assay type: functional, cell-based; details: IGROV-1
# [31] = cytotoxicity in OVCAR8 ovarian cancer cells, dose response, PAX8 project, cell-based, plate reader, dry powder samples (AID 743197); assay type: functional; details: OVCAR-8
# [32] = cytotoxicity in COV362 ovarian cancer cells, dose response, cytotoxicity control for PAX8 inhibitor project, cell-based, plate reader, dry powder, SA12 (AID 743144); assay type: functional
# [33] = inhibitors of PGC1a acetylation in cells, dose response, cell-based, cherry-picked samples (AID 720514); assay type: functional;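 further: potency may reflect raised or lowered acetylation signal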
# [34] = cytotoxicity in OVCAR4 cells, dose response, cytotoxicity control for PAX8 inhibitor project, cell-based, plate reader, dry powder, SA11 (AID 743150); assay type: functional; details: OVCAR-4
# [35] = cytotoxicity in COV434 cells, dose response, cytotoxicity control for PAX8 inhibitor project, cell-based, plate reader, dry powder, SA7 (AID 743145); assay type: functional
# [36] = cytotoxicity in OV-90 ovarian cancer cells, dose response, PAX8 inhibitor project, cell-based, plate reader, dry powder, SA8 (AID 743149); assay type: functional
# [37] = non-specific cell cytotoxicity, dose response, cytotoxicity control for PAX8 inhibitor project, plate reader, dry powder samples (AID 743021); assay type: functional, cell-based
# [38] = cytotoxicity dependent on PAX8, dose response, cell-based, plate reader, dry powder (AID 743049); assay type: functional
# T1 sequence (P07550 whole entry): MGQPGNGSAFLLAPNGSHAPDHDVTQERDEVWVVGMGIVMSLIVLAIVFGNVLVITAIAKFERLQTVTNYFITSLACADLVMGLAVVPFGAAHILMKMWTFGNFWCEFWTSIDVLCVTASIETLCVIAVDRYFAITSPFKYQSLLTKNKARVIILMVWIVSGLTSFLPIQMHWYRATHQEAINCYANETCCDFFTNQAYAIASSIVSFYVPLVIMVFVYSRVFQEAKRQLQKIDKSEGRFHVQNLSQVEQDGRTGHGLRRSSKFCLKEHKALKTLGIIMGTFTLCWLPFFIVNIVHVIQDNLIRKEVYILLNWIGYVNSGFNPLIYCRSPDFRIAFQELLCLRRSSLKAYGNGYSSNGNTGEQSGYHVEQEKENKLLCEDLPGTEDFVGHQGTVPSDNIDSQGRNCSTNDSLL
smiles,measurement,setting,value
O=C(c1ccc(OC2CCN(Cc3ccc(F)cc3)CC2)cc1)N1CCCC1,EC50,[1],> 350 µM (not active)
same,EC50,[2],> 350 µM (not active)
same,EC50,[3],5.28 µM (active)
same,EC50,[4],1.6 µM (active)
CC(=O)c1ccc(NC(=O)c2ccc([N+](=O)[O-])o2)cc1,EC50,[5],> 120 µM (not active)
same,EC50,[6],> 120 µM (not active)
same,EC50,[7],> 120 µM (not active)
same,AC50,[8],4.95 µM (active)
same,IC50,[9],51.8 µM (inactive)
same,IC50,[10],35.2 µM (inactive)
same,IC50,[11],> 25 µM (active)
same,IC50,[12],38.9 µM (inactive)
same,CC50,[13],14.3 µM (active)
same,EC50,[14],> 91.1 µM (inactive)
same,EC50,[15],> 91.1 µM (inactive)
CCN1C(=O)/C(=C2\C=Cc3ccccc3N2CC)SC1=S,IC50,[16],4.15 µM (active)
same,IC50,[17],> 80 µM (inactive)
C=CCn1c(O)cc(=O)nc1SCCCC,Ki,[18],30.3 µM (inactive)
CC(C)c1ccc(C(c2c(O)oc3ccccc3c2=O)c2c(O)oc3ccccc3c2=O)cc1,IC50,[19],3.45 µM (active)
same,EC50,[20],> 53 µM (inactive)
same,IC50,[21],5.18 µM (active)
same,IC50,[22],0.975 µM (active)
same,AC50,[23],6.05 µM (active)
CC(C)NC(=O)Nc1ccc2c(c1)CC(=O)N([C@H](C)CO)C[C@H](C)[C@H](CN(C)S(=O)(=O)c1ccc(Cl)cc1)O2,AC50,[24],37.9 µM (active)
O=C(C[C@@H]1C[C@H]2c3cc(NS(=O)(=O)c4ccc(F)cc4)ccc3O[C@H]2[C@@H](CO)O1)NCc1ccc(Oc2ccccc2)cc1,AbsAC35,[25],42.5 µM
same,AC50,[26],7.32 µM (active)
same,AC50,[27],26.7 µM (active)
same,AC50,[28],45.6 µM (active)
same,AC50,[29],21.5 µM (active)
same,AC50,[30],44.3 µM (active)
same,AC50,[31],43.5 µM (active)
CN(C[C@H]1N[C@@H](CO)[C@@H]1c1ccc(C2=CCCC2)cc1)C(=O)c1cccc(F)c1,AC50,[26],2.47 µM (active)
same,AC50,[32],3.98 µM (active)
same,AC50,[27],3.44 µM (active)
same,AC50,[28],11.3 µM (active)
same,AC50,[33],0.298 µM (active)
same,AC50,[29],4.55 µM (active)
same,AC50,[30],6.12 µM (active)
same,AC50,[34],1.37 µM (active)
same,AC50,[35],6.6 µM (active)
same,AC50,[36],7.38 µM (active)
same,AC50,[37],26 µM (active)
same,AC50,[31],3.4 µM (active)
same,AC50,[38],3.86 µM (active)

# Source: ChEMBL document CHEMBL1201862, “PubChem BioAssay data set” (2004)
